Measured values: patent US20200172491A1, “SUBSTITUTED 5-(HET-)ARYLPYRAZOLAMIDES AND SALTS THEREOF AND THEIR USE AS HERBICIDAL ACTIVE SUBSTANCES” (Bayer CropScience Aktiengesellschaft, priority 2017, published 2020)

How the values were obtained:
Type in all cases: in vivo
Amaranthus retroflexus [1] = test: Post-emergence herbicidal action; details: 320 g/ha, rated after about 3 weeks, 100% = plants have died, 0% = like control plants
Protocol: (§1) Seeds of monocotyledonous and dicotyledonous weeds and crop plants were placed in sandy loam in plastic or wood-fiber pots, covered with soil and cultivated in a greenhouse under controlled growth conditions. 2 to 3 weeks after sowing, the test plants were treated at the one-leaf stage. The compounds of the invention, formulated in the form of wettable powders (WP) or as emulsion concentrates (EC), were then sprayed onto the green parts of the plants as aqueous suspension or emulsion with addition of 0.5% additive at a water application rate of 600 l/ha (converted). After the test plants had been kept in the greenhouse under optimum growth conditions for about 3 weeks, the activity of the preparations was rated visually in comparison to untreated controls. For example, 100% activity=the plants have died, 0% activity=like control plants. Tables B1 to B6 below show the effects of selected compounds of the general formula (I) according to Table A1 at an application rate of 320 g/ha on various harmful plants, which were obtained by the aforementioned experimental procedure.

Stellaria media [2] = test: Post-emergence herbicidal action; details: 320 g/ha, rated after about 3 weeks, 100% = plants have died, 0% = like control plants
Protocol: as §1

Veronica persica [3] = test: Post-emergence herbicidal action; details: 320 g/ha, rated after about 3 weeks, 100% = plants have died, 0% = like control plants
Protocol: as §1

Viola tricolor [4] = test: Post-emergence herbicidal action; details: 320 g/ha, rated after about 3 weeks, 100% = plants have died, 0% = like control plants
Protocol: as §1

Amaranthus retroflexus [5] = test: Pre-emergence herbicidal action; details: 320 g/ha, scored after about 3 weeks, 100% = plants have died, 0% = like control plants
Source text: (§2) Seeds of monocotyledonous and dicotyledonous weed plants and crop plants were placed in plastic or wood-fiber pots and covered with soil. The compounds of the invention, formulated in the form of wettable powders (WP) or as emulsion concentrates (EC), were then applied to the surface of the covering soil as aqueous suspension or emulsion with addition of 0.5% additive at a water application rate equivalent to 600 l/ha. After the treatment, the pots were placed in a greenhouse and kept under good growth conditions for the test plants. After about 3 weeks, the effect of the preparations is scored visually in comparison with untreated controls as percentages. For example, 100% activity=the plants have died, 0% activity=like control plants. Tables B7 to B11 below show the effects of selected compounds of the general formula (I) according to Table A1 at an application rate of 320 g/ha on various harmful plants, which were obtained by the aforementioned experimental procedure.

Matricaria inodora [6] = test: Pre-emergence herbicidal action; details: 320 g/ha, scored after about 3 weeks, 100% = plants have died, 0% = like control plants
Source text: as §2

Stellaria media [7] = test: Pre-emergence herbicidal action; details: 320 g/ha, scored after about 3 weeks, 100% = plants have died, 0% = like control plants
Source text: as §2

Viola tricolor [8] = test: Pre-emergence herbicidal action; details: 320 g/ha, scored after about 3 weeks, 100% = plants have died, 0% = like control plants
Source text: as §2

Ipomoea purpurea = test: Post-emergence herbicidal action; details: 320 g/ha, rated after about 3 weeks, 100% = plants have died, 0% = like control plants
Protocol: as §1

Matricaria inodora [9] = test: Post-emergence herbicidal action; details: 320 g/ha, rated after about 3 weeks, 100% = plants have died, 0% = like control plants
Protocol: as §1

Veronica persica [10] = test: Pre-emergence herbicidal action; details: 320 g/ha, scored after about 3 weeks, 100% = plants have died, 0% = like control plants
Source text: as §2

Row | Compound | herbicidal activity on Amaranthus retroflexus (visual rating vs untreated controls) (Amaranthus retroflexus [1]) [%] | herbicidal activity on Stellaria media (visual rating vs untreated controls) (Stellaria media [2]) [%] | herbicidal activity on Veronica persica (visual rating vs untreated controls) (Veronica persica [3]) [%] | herbicidal activity on Viola tricolor (visual rating vs untreated controls) (Viola tricolor [4]) [%] | herbicidal activity on Amaranthus retroflexus (visual rating vs untreated controls) (Amaranthus retroflexus [5]) [%] | herbicidal activity on Matricaria inodora (visual rating vs untreated controls) (Matricaria inodora [6]) [%] | herbicidal activity on Stellaria media (visual rating vs untreated controls) (Stellaria media [7]) [%] | herbicidal activity on Viola tricolor (visual rating vs untreated controls) (Viola tricolor [8]) [%] | herbicidal activity on Ipomoea purpurea (visual rating vs untreated controls) (Ipomoea purpurea) [%] | herbicidal activity on Matricaria inodora (visual rating vs untreated controls) (Matricaria inodora [9]) [%] | herbicidal activity on Veronica persica (visual rating vs untreated controls) (Veronica persica [10]) [%]
1 | Cc1nn(C)c(-c2cc(F)ccc2Cl)c1C(=O)Nc1cccc(Cl)c1 [I-004] | 100 | 100 | 100 | 100 | 100 | 90 | 80 | 80 |  |  | 
2 | Cc1nn(C)c(-c2ccc(F)cc2Cl)c1C(=O)Nc1cc(F)ccc1F [I-008] | 100 | 100 | 80 | 100 | 100 | 90 | 100 | 100 |  |  | 
3 | Cc1ccccc1NC(=O)c1c(C)nn(C)c1-c1ccc(F)cc1Cl [I-016] | 100 | 100 |  | 100 | 100 | 100 | 100 |  | 100 | 100 | 80
4 | Cc1nn(C)c(-c2ccc(F)cc2Cl)c1C(=O)Nc1cccc2c1C(C)OC2(C)C (centres unmarked) [I-019] | 100 | 80 | 100 | 100 | 100 | 100 | 100 | 100 |  |  | 
5 | Cc1cccc(NC(=O)c2c(C)nn(C)c2-c2ccc(F)cc2Cl)c1 [I-022] | 100 | 100 | 100 | 100 | 100 | 100 | 100 |  |  |  | 100
6 | Cc1nn(C)c(-c2ccc(F)cc2Cl)c1C(=O)Nc1cccc(F)c1 [I-027] | 100 | 100 |  | 100 | 100 | 100 | 100 |  | 100 | 100 | 100
7 | Cc1cccc(Cl)c1NC(=O)c1c(C)nn(C)c1-c1ccc(F)cc1Cl [I-028] | 100 | 100 |  | 100 | 100 | 100 | 100 |  | 100 | 100 | 100
8 | Cc1nn(C)c(-c2ccc(F)cc2Cl)c1C(=O)Nc1ccccc1Cl [I-029] | 100 | 100 | 100 | 100 |  | 100 | 100 |  |  |  | 
9 | Cc1cccc(NC(=O)c2c(C)nn(C)c2-c2ccc(F)cc2Cl)c1C [I-030] | 100 | 100 |  | 100 | 100 | 100 | 100 |  | 100 | 90 | 100
